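Values below derive from 48-hour exposures of cells grown in 96-well plates, with endpoints linearly interpolated between the two concentrations bracketing the appropriate inhibition level. TGI: total growth inhibition.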
Legend:
Experiment in all cases: NCI anticancer screen, dose series, 48 h
[1] = system: NCI-H23 lung
[2] = system: CCRF-CEM leukemia
[3] = system: SNB-19 CNS
[4] = system: SK-MEL-28 melanoma
[5] = system: HCT-15 colon
[6] = system: MDA-MB-231 breast
[7] = system: DU-145 prostate
[8] = system: ACHN renal
[9] = system: OVCAR-3 ovarian
[10] = system: KM12 colon
[11] = system: CAKI-1 renal
[12] = system: OVCAR-5 ovarian
[13] = system: HCT-116 colon
[14] = system: IGROV1 ovarian
[15] = system: SK-MEL-2 melanoma
[16] = system: SNB-75 CNS
[17] = system: T-47D breast
[18] = system: NCI/ADR-RES ovarian
[19] = system: SK-MEL-5 melanoma
[20] = system: MOLT-4 leukemia
[21] = system: SW-620 colon
[22] = system: SR leukemia
[23] = system: 786-0 renal
[24] = system: HOP-62 NSCLC
[25] = system: OVCAR-8 ovarian
[26] = system: U251 CNS
[27] = system: UACC-62 melanoma
[28] = system: HT29 colon
[29] = system: HL-60(TB) leukemia
[30] = system: NCI-H460 lung
[31] = system: A498 renal
[32] = system: HOP-92 NSCLC
[33] = system: SF-295 CNS
[34] = system: UACC-257 melanoma
[35] = system: RXF 393 renal
[36] = system: K-562 leukemia
[37] = system: SK-OV-3 ovarian
[38] = system: M14 melanoma
[39] = system: LOX IMVI melanoma
[40] = system: MDA-N
[41] = system: SF-539 CNS
[42] = system: SN12C renal
[43] = system: COLO 205 colon
[44] = system: OVCAR-4 ovarian
[45] = system: EKVX NSCLC
[46] = system: A549 NSCLC
[47] = system: TK-10 renal
[48] = system: MDA-MB-435
[49] = system: PC-3 prostate
[50] = system: NCI-H226 lung
[51] = system: RPMI-8226 leukemia
[52] = system: BT-549 breast
[53] = system: MCF7 breast
[54] = system: SF-268 CNS
[55] = system: HCC-2998 colon
[56] = system: NCI-H522 lung
[57] = system: UO-31 renal
[58] = system: MALME-3M melanoma

For `O=S(=O)(O)c1cc(N=Nc2cccc3ccccc23)c(O)c2ncccc12`, the TGI [1] was > 100 µM, the TGI [2] was > 100 µM and the TGI [3] was > 100 µM. The TGI [4] was > 100 µM, the TGI [5] was > 100 µM and the TGI [6] was > 100 µM. For the same compound, the TGI [7] was > 100 µM, the TGI [8] was > 100 µM and the TGI [9] was > 100 µM. The TGI [10] was > 100 µM, the TGI [11] was > 100 µM and the TGI [12] was > 100 µM. The TGI [13] was > 100 µM, the TGI [14] was > 100 µM and the TGI [15] was > 100 µM. The TGI [16] was > 100 µM, the TGI [17] was > 100 µM and the TGI [18] was > 100 µM. For the same compound, the TGI [19] was > 100 µM, the TGI [20] was > 100 µM and the TGI [21] was > 100 µM. The TGI [22] was 65.7 µM, the TGI [23] was > 100 µM and the TGI [24] was > 100 µM. The TGI [25] was > 100 µM, the TGI [26] was > 100 µM and the TGI [27] was > 100 µM. For the same compound, the TGI [28] was 83.5 µM, the TGI [29] was > 100 µM and the TGI [30] was 69.4 µM. For the same compound, the TGI [31] was > 100 µM, the TGI [32] was > 100 µM and the TGI [33] was > 100 µM. For the same compound, the TGI [34] was > 100 µM, the TGI [35] was > 100 µM and the TGI [36] was > 100 µM. The TGI [37] was > 100 µM, the TGI [38] was > 100 µM and the TGI [39] was > 100 µM. The TGI [40] was > 100 µM, the TGI [41] was > 100 µM and the TGI [42] was > 100 µM. The TGI [43] was > 100 µM, the TGI [44] was > 100 µM and the TGI [45] was > 100 µM. The TGI [46] was > 100 µM, the TGI [47] was > 100 µM and the TGI [48] was > 100 µM. For the same compound, the TGI [49] was > 100 µM, the TGI [50] was 85.8 µM and the TGI [51] was > 100 µM. For the same compound, the TGI [52] was > 100 µM and the TGI [53] was > 100 µM.
For `CC(NC(=O)OC(C)(C)C)C(=O)NC(Cc1ccccc1)C(=O)NCC(=O)ON=C1CCCC1` (stereo unspecified), the TGI [1] was > 100 µM, the TGI [2] was > 100 µM and the TGI [3] was > 100 µM. For the same compound, the TGI [4] was > 100 µM, the TGI [5] was > 100 µM and the TGI [6] was > 100 µM. For the same compound, the TGI [7] was > 100 µM, the TGI [8] was > 100 µM and the TGI [9] was > 100 µM. The TGI [10] was > 100 µM, the TGI [11] was > 100 µM and the TGI [12] was > 100 µM. The TGI [13] was > 100 µM, the TGI [14] was > 100 µM and the TGI [15] was > 100 µM. For the same compound, the TGI [54] was > 100 µM, the TGI [16] was > 100 µM and the TGI [17] was > 100 µM. For the same compound, the TGI [18] was > 100 µM, the TGI [19] was > 100 µM and the TGI [20] was > 100 µM. The TGI [21] was > 100 µM, the TGI [22] was > 100 µM and the TGI [23] was > 100 µM. The TGI [24] was > 100 µM, the TGI [25] was > 100 µM and the TGI [26] was > 100 µM. The TGI [27] was > 100 µM, the TGI [55] was > 100 µM and the TGI [28] was > 100 µM. The TGI [29] was > 100 µM, the TGI [30] was > 100 µM and the TGI [31] was > 100 µM. The TGI [32] was > 100 µM, the TGI [33] was > 100 µM and the TGI [34] was > 100 µM. The TGI [35] was > 100 µM, the TGI [36] was > 100 µM and the TGI [56] was > 100 µM. For the same compound, the TGI [37] was > 100 µM, the TGI [38] was > 100 µM and the TGI [39] was > 100 µM. For the same compound, the TGI [40] was > 100 µM, the TGI [41] was > 100 µM and the TGI [42] was > 100 µM. For the same compound, the TGI [43] was > 100 µM, the TGI [44] was > 100 µM and the TGI [45] was > 100 µM. The TGI [46] was > 100 µM, the TGI [47] was > 100 µM and the TGI [48] was > 100 µM. The TGI [49] was > 100 µM, the TGI [50] was > 100 µM and the TGI [51] was > 100 µM. For the same compound, the TGI [57] was > 100 µM, the TGI [52] was > 100 µM and the TGI [53] was > 100 µM. The TGI [58] was > 100 µM.

Source: PubChem BioAssay (NCI)
